Read-outs that look alike come from different tables or passages of the source.
Tests used:
Assay type in all cases: cell-based, HCV
[1] = tested on: HCVcc, Genotype 2a; test: HCVcc inhibitor assay in Huh 7.5 cells, Renilla luciferase readout; details: Hepatitis C virus, Huh-7.5.1
Method: The secondary screen, for anti-HCV activity utilized HCVcc, a lab-adapted full infection cycle virus, to evaluate the effect of Raf inhibition on viral entry. The HCVcc inhibitor assay uses Huh 7.5 cells and HCVcc containing the luciferase gene generated from pJ6/JFH1-p7Rluc. Briefly cells are plated one day prior to assay. On the day of assay, media is aspirated. The cells are pre-treated with 100 μl of 1X compound. After 1 h pretreatment, compound containing media is aspirated, HCVcc diluted 1x compound is added to each well. Toxicity plates receive only the test compound in tissue culture medium. […] Compound cytotoxicity is assessed by MTS (CellTiter® 96 Reagent, Promega, Madison Wis.) dye reduction. The % reduction in viral entry is determined and reported. […]
The plasmids carrying HCV J6/JFH1 genome, or chimeric mCon1/JFH1 or mH77/JFH1 genome and Rluc reporter gene were kindly provided by Dr. Charles Rice at Rockefeller University. […] HCVcc infectivity was determined by TCID50 assay. […] The number of HCV positive cells was counted. The TCID50 was calculated according to the Reed and Muench method.
The format of the test plate has been standardized by SOUTHERN. […] Samples were evaluated for antiviral efficacy with triplicate measurements using 6 concentrations at half-log (or other) dilutions in order to determine EC50 values and cellular cytotoxicity, if detectable. […]

[2] = tested on: HCVpp, Genotype 1b; test: microbe, parasite or virus in culture
[3] = tested on: HCVcc GT2a; test: Synergistic antiviral potency against HCVcc (AZ-628 with direct-acting antivirals); details: for EC50: read-out: EC50 alone
Method: The tested RAF inhibitors were evaluated for an ability to synergize with other current, late stage or marketed direct-acting antivirus (DAAs).

[4] = Genotype 1b, luciferase tagged HCV GT-1b pseudotyped virus, Huh 7.5.1, ≧80% confluent cells, MOI 0.02, read-out: EC50

Cc1ccc(NC(=O)c2cccc(C(C)(C)C#N)c2)cc1Nc1ccc2ncn(C)c(=O)c2c1 [AZ-628]
EC50 [1]: 120 nM
EC50 ([2]; Hepatitis C virus, Huh-7.5.1): 420 nM
inhibition at 0.025 µM ([3]; Hepatitis C virus, GT2A, IkT-064 25 nM, GS-7977 0 nm): 0%
inhibition at 0.05 µM ([3]; Hepatitis C virus, GT2A, IkT-064 50 nM, GS-7977 0 nm): 0%
inhibition at 0.1 µM ([3]; Hepatitis C virus, GT2A, IkT-064 100 nM, GS-7977 0 nm): 0%
inhibition at 0.2 µM ([3]; Hepatitis C virus, GT2A, IkT-064 200 nM, GS-7977 0 nm): 5.15%
inhibition at 0.4 µM ([3]; Hepatitis C virus, GT2A, IkT-064 400 nM, GS-7977 0 nm): 73.4%
EC50 ([3]; Hepatitis C virus): 300 nM
% antiviral inhibition ([3]; IkT-064 25 nM, BMS-790052 0 pM): 2.83%
% antiviral inhibition ([3]; IkT-064 200 nM, BMS-790052 0 pM): 17.39%
% antiviral inhibition ([3]; IkT-064 400 nM, BMS-790052 0 pM): 74.25%

COC(=O)N[C@H](C(=O)N1CCC[C@H]1c1ncc(-c2ccc(-c3ccc(-c4cnc([C@@H]5CCCN5C(=O)[C@@H](NC(=O)OC)C(C)C)[nH]4)cc3)cc2)[nH]1)C(C)C [BMS-790052]
EC50 ([3]; Hepatitis C virus, Genotype 2a, single drug): 0.1 nM
% antiviral inhibition ([3]; IkT-064 0 nM, BMS-790052 0.781 pM): 0%
% antiviral inhibition ([3]; IkT-064 0 nM, BMS-790052 1.563 pM): 0%
% antiviral inhibition ([3]; IkT-064 0 nM, BMS-790052 3.125 pM): 8.7%
% antiviral inhibition ([3]; IkT-064 0 nM, BMS-790052 6.25 pM): 8.72%
% antiviral inhibition ([3]; IkT-064 0 nM, BMS-790052 12.5 pM): 17.27%
% antiviral inhibition ([3]; IkT-064 0 nM, BMS-790052 25 pM): 19.54%
% antiviral inhibition ([3]; IkT-064 0 nM, BMS-790052 50 pM): 33.86%
% antiviral inhibition ([3]; IkT-064 0 nM, BMS-790052 100 pM): 59.54%

CC(C)OC(=O)[C@H](C)N[P@](=O)(OC[C@H]1O[C@@H](n2ccc(=O)[nH]c2=O)[C@](C)(F)[C@@H]1O)Oc1ccccc1 [GS-7977]
EC50 ([3]; Genotype 2a, single drug): 250 nM
Fold Synergy ([3]; Genotype 2a, with AZ-628): 5
% antiviral inhibition ([3]; IkT-064 0 nM, GS-7977 1.563 nm): 0%
% antiviral inhibition ([3]; IkT-064 0 nM, GS-7977 3.125 nm): 0%
% antiviral inhibition ([3]; IkT-064 0 nM, GS-7977 6.25 nm): 0%
% antiviral inhibition ([3]; IkT-064 0 nM, GS-7977 12.5 nm): 0%
% antiviral inhibition ([3]; IkT-064 0 nM, GS-7977 25 nm): 2.65%
% antiviral inhibition ([3]; IkT-064 0 nM, GS-7977 50 nm): 11.54%
% antiviral inhibition ([3]; IkT-064 0 nM, GS-7977 100 nm): 21.51%
% antiviral inhibition ([3]; IkT-064 0 nM, GS-7977 200 nm): 44.74%

CC(C)(C)c1nc(-c2cccc(NS(=O)(=O)c3c(F)cccc3F)c2F)c(-c2ccnc(N)n2)s1 [GSK2118436/dabrafinib]
EC50 [2, 4]: > 5000 nM

Cn1c(Nc2ccc(C(F)(F)F)cc2)nc2cc(Oc3ccnc(-c4ncc(C(F)(F)F)[nH]4)c3)ccc21 [Raf265]
EC50 [1]: 1050 nM
EC50 ([2]; Hepatitis C virus, Huh-7.5.1): 890 nM

CCCS(=O)(=O)Nc1ccc(F)c(C(=O)c2c[nH]c3ncc(-c4ccc(Cl)cc4)cc23)c1F [Zelboraf/PLX4032]
EC50 [2, 4]: > 5000 nM

CNC(=O)c1cc(Oc2ccc(NC(=O)Nc3ccc(Cl)c(C(F)(F)F)c3)cc2)ccn1 [sorafenib]
EC50 ([2]; Hepatitis C virus, Huh-7.5.1): 1810 nM

From patent US20160101106A1, “METHODS FOR TREATING HCV INFECTION” (Inhibikase Therpeutics, Inc., priority 2013, published 2016)
